{"source": "paper PMC2409929", "about": "(British Journal of Cancer, 2004)", "key": {"[1]": {"assay": "Population pharmacokinetics, plasma total irinotecan and SN-38 (HPLC, NONMEM), first course", "format": "in vivo", "details": "human, iv", "experimental": "A pharmacokinetic evaluation was performed using a population approach; 88 patients from arms A, B and C were evaluated during the first course of treatment. The sampling strategy consisted of three different sampling schedules (with three sampling times in each): schedule 1: 30 min before the end of the infusion, 5 min and 3–4 h post-infusion; schedule 2: 30 min before the end of the infusion, 10 min and 5–7 h post-infusion; schedule 3: 5 min before the end of the infusion, 30 min and 20–24 h post-infusion. In a few cases, an additional sample was taken in schedules 1 and 2 after 24 h. All patients at one site were sampled according to the same schedule. The aim of the sampling strategy was to define the full kinetic profile over the whole population, by drawing a small number of samples at different times from a large number of patients.\nBlood samples (5 ml) were collected in heparinised tubes and immediately immersed in ice-water. Plasma was obtained by centrifugation of the samples (5 min; 3000 r.p.m., 4°C) and stored at −20°C or lower until analysis. […] Pharmacokinetic parameters were determined by the Bayesian approach with the concentration–time data from each patient, and a population model previously defined.\nOtherwise, they were analysed by nonparametric methods. […] All tests for significance were two-tailed."}, "[2]": {"test_system": "patients with colorectal cancer", "details": "same schedule as arm A (350 mg m^−2 q3 weeks), cited from earlier work"}, "[3]": {"details": "arm A, 350 mg m^−2 90-min i.v. infusion, N=30, mean±s.d."}, "[4]": {"details": "arm B, 125 mg m^−2 90-min i.v. infusion, N=28, mean±s.d."}, "[5]": {"details": "arm C, 250 mg m^−2 90-min i.v. infusion, N=30, mean±s.d."}}, "note": "Where two headings read alike, the source gives them in different places.", "data": [{"smiles": "CCc1c2c(nc3ccc(OC(=O)N4CCC(N5CCCCC5)CC4)cc13)-c1cc3c(c(=O)n1C2)COC(=O)[C@]3(O)CC", "note": "[irinotecan]", "values": [{"measurement": "AUC", "setting": "[1]; [3]", "value": "47.8 ± 19", "unit": "µM·h"}, {"measurement": "Cmax", "setting": "[1]; [3]", "value": "7.91 ± 1.1", "unit": "µM"}, {"measurement": "AUC", "setting": "[1]; [4]", "value": "14.6 ± 6.9", "unit": "µM·h"}, {"measurement": "Cmax", "setting": "[1]; [4]", "value": "2.62 ± 0.39", "unit": "µM"}, {"measurement": "AUC", "setting": "[1]; [5]", "value": "32.7 ± 13.5", "unit": "µM·h"}, {"measurement": "Cmax", "setting": "[1]; [5]", "value": "5.52 ± 0.9", "unit": "µM"}, {"measurement": "Median survival", "setting": "[2]; ref Cunningham et al (1998)", "value": 9.2, "unit": "months"}, {"measurement": "Median survival", "setting": "[2]; ref Rougier et al (1997)", "value": 10.8, "unit": "months"}]}]}
